Measurements published in PubChem BioAssay (NCI).
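How tested: cells in 96-well plates exposed to compound for 48 hours at five concentrations. Definition used: TGI = concentration required for complete inhibition of growth.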

Legend:
Assay in all cases: DTP human tumour cell line panel, 48 h
[1] = system: A498 renal
[2] = system: A549 NSCLC
[3] = system: ACHN renal
[4] = system: CAKI-1 renal
[5] = system: CCRF-CEM leukemia
[6] = system: COLO 205 colon
[7] = system: DLD-1 colon
[8] = system: DMS 114 small cell lung
[9] = system: DMS 273 small cell lung
[10] = system: EKVX NSCLC
[11] = system: HCC-2998 colon
[12] = system: HCT-116 colon
[13] = system: HCT-15 colon
[14] = system: HL-60(TB) leukemia
[15] = system: HOP-62 NSCLC
[16] = system: HOP-92 NSCLC
[17] = system: HT29 colon
[18] = system: IGROV1 ovarian
[19] = system: K-562 leukemia
[20] = system: KM12 colon
[21] = system: KM20L2 colon
[22] = system: LXFL 529 NSCLC
[23] = system: M14 melanoma
[24] = system: M19-MEL melanoma
[25] = system: MALME-3M melanoma
[26] = system: MOLT-4 leukemia
[27] = system: NCI-H226 lung
[28] = system: NCI-H23 lung
[29] = system: NCI-H460 lung
[30] = system: NCI-H522 lung
[31] = system: OVCAR-3 ovarian
[32] = system: OVCAR-4 ovarian
[33] = system: OVCAR-5 ovarian
[34] = system: OVCAR-8 ovarian
[35] = system: RPMI-8226 leukemia
[36] = system: SF-268 CNS
[37] = system: SF-295 CNS
[38] = system: SF-539 CNS
[39] = system: SK-MEL-2 melanoma
[40] = system: SK-MEL-28 melanoma
[41] = system: SK-MEL-5 melanoma
[42] = system: SK-OV-3 ovarian
[43] = system: SN12C renal
[44] = system: SNB-19 CNS
[45] = system: SNB-75 CNS
[46] = system: SW-620 colon
[47] = system: TK-10 renal
[48] = system: U251 CNS
[49] = system: UACC-257 melanoma
[50] = system: UACC-62 melanoma
[51] = system: UO-31 renal
[52] = system: XF 498 CNS
[53] = system: 786-0 renal
[54] = system: BT-549 breast
[55] = system: DU-145 prostate
[56] = system: HS 578T breast
[57] = system: LOX IMVI melanoma
[58] = system: MCF7 breast
[59] = system: MDA-MB-231 breast
[60] = system: MDA-MB-435
[61] = system: MDA-N
[62] = system: NCI/ADR-RES ovarian
[63] = system: PC-3 prostate
[64] = system: RXF 393 renal
[65] = system: SR leukemia
[66] = system: T-47D breast

Measured: TGI

CC(C)OP(=O)(OC(C)C)c1nc(-c2ccccc2)n(-c2ccc([N+](=O)[O-])cc2)n1
not listed: [53] | [54] | [55] | [56] | [57] | [58] | [59] | [60] | [61] | [62] | [63] | [64] | [65] | [66]
> 100 µM: all other assays above

CC1CN=C(Nc2ccccc2)S1 (stereo not given)
not listed: [7] | [8] | [9] | [21] | [22] | [24] | [32] | [52]
> 100 µM: all other assays above
